# Results reported in US11608337B2, “Heterocyclic compounds as immunomodulators” (Incyte Corporation, priority 2016, dated 2023).
# Biological target: PD-1/PD-L1 protein/protein interaction (Homo sapiens (Human), UniProt Q9NZQ7)
# Assay: PD-1/PD-L1 Homogeneous Time-Resolved Fluorescence (HTRF) Binding Assay
# Conditions: recombinant human PD-L1 (19-238) His-tag, human PD-1 (25-167) Fc tag; 25° C., PBS pH 7.4
# Procedure: Example A. PD-1/PD-L1 Homogeneous Time-Resolved Fluorescence (HTRF) Binding Assay
# The assays were conducted in a standard black 384-well polystyrene plate with a final volume of 20 μL. Inhibitors were first serially diluted in DMSO and then added to the plate wells before the addition of other reaction components. The final concentration of DMSO in the assay was 1%. The assays were carried out at 25° C. in the PBS buffer (pH 7.4) with 0.05% Tween-20 and 0.1% BSA. Recombinant human PD-L1 protein (19-238) with a His-tag at the C-terminus was purchased from AcroBiosystems (PD1-H5229). Recombinant human PD-1 protein (25-167) with Fc tag at the C-terminus was also purchased from AcroBiosystems (PD1-H5257). PD-L1 and PD-1 proteins were diluted in the assay buffer and 10 μL was added to the plate well. Plates were centrifuged and proteins were preincubated with inhibitors for 40 minutes. The incubation was followed by the addition of 10 μL of HTRF detection buffer supplemented with Europium cryptate-labeled anti-human IgG (PerkinElmer-AD0212) specific for Fc and anti-His antibody conjugated to SureLight®-Allophycocyanin (APC, PerkinElmer-AD0059H). After centrifugation, the plate was incubated at 25° C. for 60 min. before reading on a PHERAstar FS plate reader (665 nm/620 nm ratio). Final concentrations in the assay were […], 10 nM PD-L1, 1 nM europium anti-human IgG and 20 nM anti-His-Allophycocyanin. IC50 determination was performed by fitting the curve of percent control activity versus the log of the inhibitor concentration using the GraphPad Prism 5.0 software.
# Data obtained for the Example compounds using the PD-1/PD-L homogenous time-resolved fluorescence (HTRF) binding assay described in Example A is provided in Table 1.
# Sequence of PD-1/PD-L1 protein/protein interaction (Q9NZQ7 19-238): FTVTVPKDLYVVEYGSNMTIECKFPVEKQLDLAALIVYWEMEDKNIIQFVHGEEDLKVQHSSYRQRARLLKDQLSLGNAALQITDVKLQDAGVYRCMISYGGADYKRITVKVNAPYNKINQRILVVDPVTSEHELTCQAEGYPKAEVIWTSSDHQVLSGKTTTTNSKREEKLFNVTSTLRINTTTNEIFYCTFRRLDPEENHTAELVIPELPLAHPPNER
row,Compound,IC50
1,"Cc1c(-c2cccc(C(N)=O)c2)cccc1-c1nc2c(s1)CNCC2 [Example 38, 2′-methyl-3′-(4,5,6,7-tetrahydro[1,3]thiazolo[5,4-c]pyridin-2-yl)biphenyl-3-carboxamide]",≤ 100 nM
2,"Cc1c(-c2cccc(CC(N)=O)c2)cccc1-c1nc2c(s1)CNCC2 [Example 39, 2-[2′-methyl-3′-(4,5,6,7-tetrahydro[1,3]thiazolo[5,4-c]pyridin-2-yl)biphenyl-3-yl]acetamide]",≤ 100 nM
3,"Cc1c(-c2nc3c(s2)CNCC3)cccc1-c1cccc2c1cnn2C [Example 40, 2-[2-methyl-3-(1-methyl-1H-indazol-4-yl)phenyl]-4,5,6,7-tetrahydro[1,3]thiazolo[5,4-c]pyridine]",≤ 100 nM
